Source: patent US20190327974A1, “SYNERGISTS FOR IMPROVED PESTICIDES” (priority 2017, published 2019)
Changes are numbered by the printed parent chain. Where two headings read alike, the source gives them in different places.

What was measured:
wildtype LcαE7 = target: T1, wildtype LcαE7 (Lucilia cuprina, UniProt Q25252); experiment: Enzyme inhibition assay with 4-nitrophenol butyrate, wild-type; format: biochemical
T1 sequence (Q25252 1-570): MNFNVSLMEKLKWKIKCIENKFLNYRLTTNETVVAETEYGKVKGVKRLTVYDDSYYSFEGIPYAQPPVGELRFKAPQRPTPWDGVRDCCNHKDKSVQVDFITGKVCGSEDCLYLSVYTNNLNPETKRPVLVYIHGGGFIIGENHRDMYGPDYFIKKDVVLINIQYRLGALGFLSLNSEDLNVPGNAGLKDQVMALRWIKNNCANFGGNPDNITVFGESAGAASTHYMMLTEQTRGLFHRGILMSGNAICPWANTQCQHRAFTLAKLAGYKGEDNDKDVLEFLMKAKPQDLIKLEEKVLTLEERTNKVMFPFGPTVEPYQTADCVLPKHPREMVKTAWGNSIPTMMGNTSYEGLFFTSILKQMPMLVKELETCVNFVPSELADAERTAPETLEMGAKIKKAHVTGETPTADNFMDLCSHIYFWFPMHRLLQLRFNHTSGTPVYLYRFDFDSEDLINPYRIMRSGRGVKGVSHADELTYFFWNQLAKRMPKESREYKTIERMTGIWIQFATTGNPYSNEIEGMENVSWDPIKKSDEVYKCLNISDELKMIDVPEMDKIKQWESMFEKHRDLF
Protocol: Wild-type LcαE7 was heterologously expressed in Escherichia coli and purified using metal ion affinity and size exclusion chromatography. The potency of the boronic acids was determined by enzymatic assays of recombinant LcαE7 with the model carboxylester substrate 4-nitrophenol butyrate.
(§1) Inhibition of wild-type αE7 and the Gly137Asp αE7 variant was determined by a competition assay between the native-substrate analogue 4-nitrophenol butyrate (Sigma) and the boronic acid compounds. Initially, the Michalis constant (KM) with 4-nitrophenol butyrate was measured for both enzymes to determine an appropriate concentration of substrate for use in the competition assays. Formation of the 4-nitrophenolate product of hydrolysis was monitored at 405 nm in the presence of enzyme and eight different concentrations of substrate. 4-nitrophenol butyrate was prepared in methanol to 100 mM and serially diluted 1-in-2 to achieve concentrations from 100 mM to 0.8 mM. Enzyme stocks were prepared in 4 mg/ml bovine serum albumin (Sigma) to maintain enzyme stability. Reactions were prepared by pipetting 178 μl assay buffer (100 mM NaCl, 20 mM HEPES pH 7.5) and 2 μl substrate (final concentrations of 1000 to 8 μM) into 300 μl wells of a 96-well plate. The reaction was initiated by the addition of 20 μl enzyme (final concentration 2.5 nM for wildtype αE7 and 4 nM for Gly137Asp αE7). Product formation was monitored for four minutes at room temperature using an Epoch microplate spectrophotometer (BioTek) and the initial rates of ester hydrolysis were determined by linear regression using GraphPad Prism. The Michalis constant was determined by fitting the initial rates to the Michalis-Menton equation (FIG. 10).
(§2) Enzyme inhibition with the boronic acid compounds was determined by assaying the initial rate of 4-nitrophenol butyrate hydrolysis in the presence of either neat DMSO or the boronic acid compounds in DMSO. Compounds were prepared by serially diluting 1-in-3 an initial 10 mM stock to achieve concentrations from 10 mM to 2 nM. Reactions were prepared by pipetting 178 μl assay buffer supplemented with substrate to a final concentration equal to the KM of the enzyme (15 μM for wildtype αE7 and 250 μM for Gly137Asp αE7) into wells of a 96-well plate. 2 μl neat DMSO or 2 μl serially diluted inhibitor (final concentrations of 100 μM to 20 pM) were added to the wells. The reaction was initiated by the addition of 20 μl enzyme (final concentration 0.5 nM for wildtype αE7 and 10 nM for Glyl37Asp αE7). Product formation was monitored for four minutes at room temperature and the initial rates of ester hydrolysis were determined by linear regression. To determine the concentration of boronic acid compounds required to inhibit 50% of esterase activity (IC50), a four-parameter sigmoidal dose-response curve was fitted to percentage inhibition using GraphPad Prism (FIGS. 7 and 8). Ki values were determined using the Cheng-Prusoff equation assuming competitive inhibition (Yung-Chi, C. & Prusoff W. H. Relationship between the inhibition constant (KI) and the concentration of inhibitor which causes 50 percent inhibition (150) of an enzymatic reaction. Biochem. Pharmacol. 22, 3099-3108 (1973)).

Gly137Asp LcαE7 = target: T2, Gly137Asp LcαE7 (Lucilia cuprina, UniProt Q25252, G137D); experiment: Enzyme inhibition assay with 4-nitrophenol butyrate, Gly137Asp variant; format: biochemical
T2 sequence (Q25252 1-570 G137D): T1 sequence (Q25252 1-570) with G137D
Protocol: as §1, §2
The two most common CBE-mediated insecticide resistance mechanisms involve increased protein expression, or mutation to gain new catalytic (OP-hydrolase) functions. Compounds 1 to 5 were tested against the resistance associated Gly137Asp variant of LcαE7^17,27 (Table 1). The Glyl37Asp mutation is located in the oxyanion hole and positions a new general base in the active site to catalyze dephosphorylation of the catalytic serine. Thus, compounds that inhibit WT LcαE7 as well as this common resistance associated Glyl37Asp variant would increase the efficacy of OPs by targeting both detoxification routes. Encouraged by the activity of the boronic acids 1 to 5, the compounds were tested against the Gly137Asp variant of LcαE7 (Table 1).

MDA-MB-231 cells = experiment: Cellular toxicity, Cell Titer Glo; format: cell-based, human; settings: for IC50: Homo sapiens, MDA-MB-231, 48 h incubation, Cell Titer Glo, read-out: Viability IC50 MDA-MB-231; for toxicity to MDA-MB-231 cells (in words): 48 h, up to 100 μM
Protocol: A seven-point, two-fold dose response series, with a 100 uM as the upper limit and a DMSO-only control point was generated using an Echo 550 liquid handler (Labcyte Inc.) in 384-well plates. Subsequently, the human breast cell lines MDA-MB-231 (tumorigenic) and HB2 (non-tumorigenic) were seeded (1000 cells/well) using a multi-drop Combi (Thermo Fisher Scientific) on top of the compounds. Plates were then incubated at 37° C. and 5% CO2 for 48 hours upon which cell viability was assessed by adding CellTiter-Glo® (Promega) to the reaction. The luminescence signal was measured on a Pherastar FS multi-mode plate reader (BMG Labtech).

Structure (SMILES) | Ki (wildtype LcαE7) [nM] | Ki (Gly137Asp LcαE7) [nM] | IC50 (MDA-MB-231 cells) [nM] | Ki (wildtype LcαE7; Cheng-Prusoff from dose-response, 4-nitrophenol butyrate, read-out: Ki wildtype LcαE7) [nM] | Ki (Gly137Asp LcαE7; Cheng-Prusoff from dose-response, 4-nitrophenol butyrate, read-out: Ki Gly137Asp LcαE7) [nM] | toxicity to MDA-MB-231 cells (in words) (MDA-MB-231 cells)
Cc1ccc(B(O)O)cc1Br [Compound 1] | 12 | 49 | > 100000 | – | – | –
Cc1ccc(B(O)O)cc1OCc1ccccc1 [Compound 2] | 2.9 | 29 | > 100000 | – | – | –
OB(O)c1cc(Br)cc(N2CCOCC2)c1 [Compound 3.1] | – | – | – | 0.7 | 430 | –
OB(O)c1cc(Br)cc(N2CCCCC2)c1 [Compound 3.3] | 0.47 | 150 | – | – | – | –
CN1CCN(c2cc(Br)cc(B(O)O)c2)CC1 [Compound 3.4] | 3.8 | 1000 | – | – | – | –
OB(O)c1cc(Br)cc2c1OCC2 [Compound 3.5] | 3.4 | 440 | – | – | – | –
OB(O)c1cc(Br)c2ccccc2c1F [Compound 3.6] | 6 | 71 | – | – | – | –
CC(C)Oc1cc(Br)cc(B(O)O)c1 [Compound 3.7, 3-Bromo-5-isopropoxyphenylboronic acid] | 0.3 | 76 | – | – | – | –
OB(O)c1cc(Br)cc(OC(F)(F)F)c1 [Compound 3.8] | 2 | 110 | – | – | – | –
OB(O)c1cc(Br)cc(OCc2ccccc2)c1 [Compound 3.9] | 0.44 | 25 | – | – | – | do not exhibit any cellular toxicity
OB(O)c1cc(Br)cc(Oc2ccccc2)c1 [Compound 3.10, 3-Bromo-5-phenoxyfenylboronic acid] | 0.44 | 18 | – | – | – | do not exhibit any cellular toxicity
O=C(c1cc(Cl)cc(B(O)O)c1)N1CCOCC1 [Compound 3.11] | 5.8 | 1000 | – | – | – | –
CC(C)(C)Oc1ccc(B(O)O)cc1Br [Compound 3.12] | 12 | 990 | – | – | – | –
OB(O)c1cc(Br)cc(N2CCCC2)c1 [Compound 3] | 0.25 | 110 | > 100000 | – | – | –
OB(O)c1ccc2ccccc2c1 [Compound 4] | 7.2 | 190 | > 100000 | – | – | –
OB(O)c1ccc(OCc2ccccc2F)c(Cl)c1 [Compound 5, 3-Chloro-4(2′-fluorobenzyloxy) phenylboronic acid] | 11 | 170 | > 100000 | – | – | –
OB(O)c1ccccc1 [PBA, phenylboronic acid, reference compound] | 210 | 450 | – | – | – | –
